A value given as a limit tells only on which side of the number the result lay.

The test system of one assay is A375 cells. The assay can be described thus: A375 Cell Proliferation Assay (1). The assay is classed as cell-based. The settings on record: Homo sapiens, A-375. The procedure, abridged:
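Resazurin fluorescence (excitation 540 nm, emission 600 nm, after a further 5-6 h) gave IC50s from triplicate compound dilution series.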

The subject of the next assay is WM3928 cells. The assay can be described thus: WM3928 Cell Proliferation Assay (1). Format: cell-based. The method, boiled down:
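IC50 was derived from resazurin fluorescence (ex 540, em 600 nm) after a 6–7 h dye incubation. Before that, cells had 67–72 h of compound exposure at 37 °C, 5% CO2.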

The target in assay [1] is B-Raf (V600E) (SEQ. ID NO: 4) kinase (Homo sapiens (Human), UniProt P15056, V600E). The assay can be described thus: Biochemical Assay for B-Raf (V600E) (1). The conditions noted are these: Table J, BRAF V600E, assay version (1); read-out: BRAF VE (1) IC50. The procedure, abridged: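 Serially diluted compounds tested against 0.03 nM enzyme with 30.1 nM MEK substrate and 1 mM ATP (Tris pH 7.5, 15 mM MgCl2), ATP use coupled to NADH loss via PK/LDH. A340 monitored continuously 6 h, 30 °C; IC50 fitted (four-parameter) from the 3–4 h rate versus no-compound and known-inhibitor controls.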

For the next assay, the system named is Miapaca-2 cells. In words: MiaPaca-2 Cell Proliferation Assay (1). The assay is classed as cell-based. The settings on record: Homo sapiens, MIA PaCa-2, single agent, read-out: MiaPaca2 (1) IC50. The method, boiled down:
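Resazurin was added after compound exposure and incubated 5-6 h, then fluorescence read at 540 nm excitation and 600 nm emission to give IC50.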

Sequence of B-Raf (V600E) (SEQ. ID NO: 4) kinase (P15056 416-766 V600E): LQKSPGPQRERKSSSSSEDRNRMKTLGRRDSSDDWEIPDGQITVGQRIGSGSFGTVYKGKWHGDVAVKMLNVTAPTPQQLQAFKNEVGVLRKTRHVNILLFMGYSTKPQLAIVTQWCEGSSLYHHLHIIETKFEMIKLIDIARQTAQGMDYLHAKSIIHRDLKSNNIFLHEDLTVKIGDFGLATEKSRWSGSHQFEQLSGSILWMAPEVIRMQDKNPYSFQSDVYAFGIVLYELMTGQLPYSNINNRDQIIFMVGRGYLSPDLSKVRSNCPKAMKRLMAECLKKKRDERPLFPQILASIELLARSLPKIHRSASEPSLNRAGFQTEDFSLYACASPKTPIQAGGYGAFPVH

The IC50 is the concentration at which inhibition is half-maximal. With `CC(=O)Nc1cc(-c2nccc(-c3cc(NC(=O)c4cnnc(C5CC5)c4)ccc3C)n2)ccn1` [Example 168], the concentration for half-maximal inhibition (IC50) is 500 to 1000 nM in the assay on A375 cells, 500 to 1000 nM with WM3928 cells, at most 100 nM in assay [1] and 1000 to 10000 nM with Miapaca-2 cells.

As to `Cc1ccc(NC(=O)c2ccnc(C(C)(C)C#N)c2)cc1-c1nccc(-c2ccnc(NC(=O)C3CC3)c2)n1` [Example 169], the IC50 with A375 cells is at most 100 nM; with WM3928 cells, at most 100 nM; in assay [1], at most 100 nM; with Miapaca-2 cells it was 1000 to 10000 nM.

Turning to `CNC(=O)c1cc(-c2cccc(-c3cc(NC(=O)c4ccnc(C(C)(C)C#N)c4)ccc3C)c2)ncn1` [Example 171], the IC50 in the assay on A375 cells was at most 100 nM; in the assay with WM3928 cells, at most 100 nM; in assay [1] it was at most 100 nM; with Miapaca-2 cells, 1000 to 10000 nM.

On to `Cc1ncc(NC(=O)c2ccnc(C(C)(C)C#N)c2)cc1-c1cccc(-c2ccnc(NC(=O)C3CC3)c2)n1` [Example 172], for which the IC50 with A375 cells is at most 100 nM; with WM3928 cells, at most 100 nM; in assay [1], at most 100 nM; in the assay with Miapaca-2 cells it was 1000 to 10000 nM.

On to `Cc1ccc(NC(=O)c2cccc(C(C)(C)C#N)c2)cc1-c1cccc(-c2cc(NC(=O)C3CC3)ncn2)c1` [Example 174], for which the IC50 was at most 100 nM with A375 cells, at most 100 nM in the assay on WM3928 cells, at most 100 nM in assay [1] and 1000 to 10000 nM with Miapaca-2 cells.

As for `CNC(=O)c1cc(-c2nccc(-c3cc(NC(=O)c4ccnc(C5(C#N)CC5)c4)ccc3C)n2)ccn1` [Example 175], the concentration for half-maximal inhibition (IC50) with A375 cells is 100 to 500 nM; with WM3928 cells it was at most 100 nM; in assay [1], at most 100 nM; in the assay on Miapaca-2 cells it was 1000 to 10000 nM.

For the compound `CNC(=O)c1cc(-c2cc(-c3cc(NC(=O)c4ccnc(C(C)(C)C#N)c4)c(F)cc3C)ccn2)ccn1` [Example 176], the IC50 in the assay on A375 cells is at most 100 nM; with WM3928 cells it was at most 100 nM; in assay [1], at most 100 nM; in the assay on Miapaca-2 cells, 1000 to 10000 nM.

With `CNC(=O)c1cc(-c2ccnc(-c3cc(NC(=O)c4ccnc(C(C)(C)C#N)c4)ccc3C)n2)ccn1` [Example 177], the half-inhibitory concentration (IC50) with A375 cells was 100 to 500 nM; with WM3928 cells it was at most 100 nM; in assay [1] it was at most 100 nM; in the assay on Miapaca-2 cells it was 1000 to 10000 nM.

In the case of `CNC(=O)c1cc(-c2cc(-c3cc(NC(=O)c4ccnc(C5(C#N)CC5)c4)ccc3C)ncn2)ccn1` [Example 178], the IC50 with A375 cells is 100 to 500 nM; with WM3928 cells, at most 100 nM; in assay [1], at most 100 nM; with Miapaca-2 cells, 1000 to 10000 nM.

Take `Cc1cc(F)c(NC(=O)c2ccnc(C(C)(C)C#N)c2)cc1-c1ccnc(-c2ccnc(NC(=O)C3CC3)c2)n1` [Example 179]: the IC50 in the assay on A375 cells is at most 100 nM; in the assay with WM3928 cells, at most 100 nM; in assay [1], at most 100 nM; with Miapaca-2 cells, 1000 to 10000 nM.

Take `Cc1ccc(NC(=O)c2ccnc(C3(C#N)CC3)c2)cc1-c1ccnc(-c2ccnc(NC(=O)C3CC3)c2)n1` [Example 180]: the IC50 is at most 100 nM in the assay on A375 cells, at most 100 nM in the assay on WM3928 cells, at most 100 nM in assay [1] and 1000 to 10000 nM with Miapaca-2 cells.

In the case of `Cc1ncc(NC(=O)c2ccnc(C(C)(C)C#N)c2)cc1-c1cccc(-c2cc(NC(=O)C3CC3)ncn2)c1` [Example 181], the half-maximal inhibitory concentration (IC50) is at most 100 nM with A375 cells, at most 100 nM in the assay with WM3928 cells, at most 100 nM in assay [1] and 1000 to 10000 nM with Miapaca-2 cells.

Turning to `CCC(=O)Nc1cc(-c2cccc(-c3cc(NC(=O)c4ccnc(C(C)(C)C#N)c4)cnc3C)n2)ccn1` [Example 182], the IC50 is 100 to 500 nM with A375 cells, at most 100 nM with WM3928 cells, at most 100 nM in assay [1] and 1000 to 10000 nM with Miapaca-2 cells.

As for `Cc1ccc(NC(=O)c2ccnc(C3CC3)c2)cc1-c1cncc(-c2ccnc(NC(=O)C3CC3)c2)n1` [Example 184], the IC50 is at most 100 nM in the assay on A375 cells, at most 100 nM in the assay on WM3928 cells, at most 100 nM in assay [1] and 1000 to 10000 nM in the assay on Miapaca-2 cells.

For the origin of these results see US12319655B2, “RAF kinase inhibitors and methods of use thereof” (Deciphera Pharmaceuticals, LLC, priority 2021, dated 2025).
